Data as given in PubChem BioAssay AID1918932 (Molecular Pharmacology Branch, DTP, NCI, 2023).
Where “and” joins values, the source holds several entries; their conditions need not be identical. Equal values may be shown once. Each block holds one compound with its values, some of them ahead of it.

Tested on: 171881-019-R-J1-PDC complex spheroid viability
Assay: Anticancer human tumor 171881-019-R-J1-PDC patient-derived invasive breast carcinoma cell line growth inhibition
Details: for viability, T/C: stronger effect = lower value
Excerpt: Multicellular complex tumor spheroid response to LSD1 Inhibitor Iadademstat in combination with a variety of drugs and investigational agents in selected tumor cell lines
The current study was undertaken to assess response to LSD1 inhibitors in combination with standard-of-care drugs and investigational agents in solid tumor complex spheroid models as well as in the K-562 leukemia. Complex spheroids include a stromal component modeled by human endothelial cells (HUVEC) and fibroblasts modeled by human mesenchymal stem cells (MSCs). The concentration ranges selected for each drug and investigational agent were based upon clinically achievable concentrations if the clinical Cmax of the agent was known.
Compounds. The drugs and investigational agents used in this study are listed on Table 1. All of the agents used, including staurosporine (NSC755774) and gemcitabine (NSC613327), were obtained from the Developmental Therapeutics Program, NCI. FDA-approved anticancer drugs are available from the NCI at http://dtp.nci.nih.gov/branches/dscb/oncology_drugset_explanation.html. Drugs and investigational agents were >95% pure by proton nuclear magnetic resonance (NMR) and liquid chromatography/mass spectrometry (LC/MS). Stock solutions were prepared at 400x in DMSO, stored at -70 degrees C, and diluted in fresh medium prior to their use. The final concentration of DMSO in cell culture wells never exceeded 0.25% (v/v). The FDA-approved anticancer drug set is available from the Developmental Therapeutics Program at https://dtp.cancer.gov/organization/dscb/obtaining/available_plates.htm. All drugs and investigational agents were tested over a range starting from a high concentration at or near the clinical Cmax and decreasing in half-log increments. If the clinical Cmax for an agent had not been determined, the highest concentration tested was 10 microM.
Cell Lines. The patient-derived cancer cell (PDC) lines: 292921-168-R-J2-PDC, K24384-001-R-PDC, and 521955-158-R2-J5-PDC pancreatic carcinomas, 556581-035-R-J1 ovarian carcinoma, 324938-238-R-J1-PDC, 855422-203-R-J1-PDC and 883617-216-R-J1-PDC urothelial bladder carcinomas, 743489-274-T-PDC renal cell carcinoma, 138582-R-J1 Merkel cell tumor, K60290-347-R-J1 and K57222-313-R-J1-PDC glioblastomas, 653999-131-R-J2-PDC, LG0703-F948-PDC, and 349418-098-R-PDC non-small cell lung carcinomas, 885512-296-R-J2-PDC, 171881-019-R-J1-PDC breast carcinomas and 186277-243-T-J2-PDC and 233499-124-R-J2-PDC colon carcinomas were obtained from the NCI Patient-Derived Models Repository (PDMR, https://pdmr.cancer.gov). The established cell lines NCI/ADR-RES (RRID:CVCL_14520 and OVCAR-5 (RRID:CVCL_1628) ovarian carcinomas, 786-O (RRID:CVCL_1051) and A498 (RRID:CVCL_A498) renal cell carcinoma, NCI-H211 (ATCC, cat. CRL-5824; RRID:CVCL_1529), NCI-H196 (ATCC, cat. CRL-5823, RRID:CVCL_1509), SW 1271 (ATCC, cat. CRL-2177, RRID:CVCL_1716) and NCI-H1876 (ATCC, cat. CRL-5902, RRID:CVCL_1503) small cell lung carcinomas, MDA-MB-231 (RRID:CVCL_0062) and MDA-MB-468 (RRID:CVCL_0419)breast carcinomas (10-12). Pooled donor human umbilical vein endothelial cells (HUVEC, Lonza, cat. CC-2519) and human mesenchymal stem cells (hMSC, Lonza, cat. PT-2501) were purchased from Lonza (Walkersville, MD).
Cell Culture. All cells were maintained in an incubator at 37 degrees C and 5% CO2 with 95% humidity. The PDC lines were cultured according to standard operating procedures established by the NCI PDMR (https://pdmr.cancer.gov). Briefly all PDCs were thawed and cultured in Matrigel-coated flasks prepared with a working solution of 1X Ham's F-12 nutrient mix, without supplementation (Invitrogen, Waltham, MA, cat. 11765054), 100 U/mL penicillin-streptomycin (Invitrogen, cat. 15140122), and 2.5% Matrigel (Corning Inc., Corning, NY, cat. 354248) for the first three passages. […]

[1] = curve of first compound, second compound 0.1 µM
[2] = curve of first compound, second compound 0.316 µM
[3] = curve of first compound, second compound 1 µM
[4] = curve of first compound, second compound 3.16 µM
[5] = curve of first compound, second compound 10 µM
[6] = second compound 0.1 µM, first compound 0.00949 µM
[7] = second compound 0.1 µM, first compound 0.03 µM
[8] = second compound 0.1 µM, first compound 0.0949 µM
[9] = second compound 0.1 µM, first compound 0.3 µM
[10] = second compound 0.1 µM, first compound 0.949 µM
[11] = second compound 0.1 µM, first compound 3 µM
[12] = second compound 0.316 µM, first compound 0.00949 µM
[13] = second compound 0.316 µM, first compound 0.03 µM
[14] = second compound 0.316 µM, first compound 0.0949 µM
[15] = second compound 0.316 µM, first compound 0.3 µM
[16] = second compound 0.316 µM, first compound 0.949 µM
[17] = second compound 0.316 µM, first compound 3 µM
[18] = second compound 1 µM, first compound 0.00949 µM
[19] = second compound 1 µM, first compound 0.03 µM
[20] = second compound 1 µM, first compound 0.0949 µM
[21] = second compound 1 µM, first compound 0.3 µM
[22] = second compound 1 µM, first compound 0.949 µM
[23] = second compound 1 µM, first compound 3 µM
[24] = second compound 3.16 µM, first compound 0.00949 µM
[25] = second compound 3.16 µM, first compound 0.03 µM
[26] = second compound 3.16 µM, first compound 0.0949 µM
[27] = second compound 3.16 µM, first compound 0.3 µM
[28] = second compound 3.16 µM, first compound 0.949 µM
[29] = second compound 3.16 µM, first compound 3 µM
[30] = second compound 10 µM, first compound 0.00949 µM
[31] = second compound 10 µM, first compound 0.03 µM
[32] = second compound 10 µM, first compound 0.0949 µM
[33] = second compound 10 µM, first compound 0.3 µM
[34] = second compound 10 µM, first compound 0.949 µM
[35] = second compound 10 µM, first compound 3 µM
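Also: spheroids exposed to agents for 7 days after 3 days growth.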

Structure (SMILES): CC(C)CC(NC(=O)CNC(=O)c1cc(Cl)ccc1Cl)B1OC(=O)CC(CC(=O)O)(C(=O)O)O1 (centres undefined) + NC1CCC(NC2CC2c2ccccc2)CC1
IC50 [1]: 3.66 nM
IC50 [2]: 3.22 nM
IC50 [3]: 3.66 nM
IC50 [4]: 3.84 nM
IC50 [5]: 3.71 nM
viability, T/C (second compound 0.1 µM, first compound 0.000316 µM): 87.4%
viability, T/C (second compound 0.1 µM, first compound 0.001 µM): 86.8%
viability, T/C (second compound 0.1 µM, first compound 0.00316 µM): 54.9%
viability, T/C (second compound 0.1 µM, first compound 0.01 µM): 13.2%
viability, T/C (second compound 0.1 µM, first compound 0.0316 µM): 3.51%
viability, T/C (second compound 0.1 µM, first compound 0.1 µM): 4.11%
viability, T/C (second compound 0.316 µM, first compound 0.000316 µM): 84.8%
viability, T/C (second compound 0.316 µM, first compound 0.001 µM): 83.8%
viability, T/C (second compound 0.316 µM, first compound 0.00316 µM): 49.8%
viability, T/C (second compound 0.316 µM, first compound 0.01 µM): 11.8%
viability, T/C (second compound 0.316 µM, first compound 0.0316 µM): 3.3%
viability, T/C (second compound 0.316 µM, first compound 0.1 µM): 1.04%
viability, T/C (second compound 1 µM, first compound 0.000316 µM): 79%
viability, T/C (second compound 1 µM, first compound 0.001 µM): 82.2%
viability, T/C (second compound 1 µM, first compound 0.00316 µM): 54.5%
viability, T/C (second compound 1 µM, first compound 0.01 µM): 13.6%
viability, T/C (second compound 1 µM, first compound 0.0316 µM): 3.7%
viability, T/C (second compound 1 µM, first compound 0.1 µM): 1%
viability, T/C (second compound 3.16 µM, first compound 0.000316 µM): 91.7%
viability, T/C (second compound 3.16 µM, first compound 0.001 µM): 90.8%
viability, T/C (second compound 3.16 µM, first compound 0.00316 µM): 57.1%
viability, T/C (second compound 3.16 µM, first compound 0.01 µM): 12.4%
viability, T/C (second compound 3.16 µM, first compound 0.0316 µM): 3.26%
viability, T/C (second compound 3.16 µM, first compound 0.1 µM): 0.97%
viability, T/C (second compound 10 µM, first compound 0.000316 µM): 86.1%
viability, T/C (second compound 10 µM, first compound 0.001 µM): 94.2%
viability, T/C (second compound 10 µM, first compound 0.00316 µM): 56.2%
viability, T/C (second compound 10 µM, first compound 0.01 µM): 8.46%
viability, T/C (second compound 10 µM, first compound 0.0316 µM): 1.96%
viability, T/C (second compound 10 µM, first compound 0.1 µM): 0.65%

Structure (SMILES): COc1cc(C2c3cc4c(cc3C(OC3OC5COC(C)OC5C(O)C3O)C3COC(=O)C23)OCO4)cc(OC)c1O (centres undefined) + NC1CCC(NC2CC2c2ccccc2)CC1
IC50 [1]: 439 nM
IC50 [2]: 440 nM
IC50 [3]: 511 nM
IC50 [4]: 536 nM
IC50 [5]: 649 nM
viability, T/C [6]: 72.8%
viability, T/C [7]: 90.8%
viability, T/C [8]: 87.9%
viability, T/C [9]: 56.8%
viability, T/C [10]: 33.2%
viability, T/C [11]: 18.5%
viability, T/C [12]: 76.8%
viability, T/C [13]: 98.2%
viability, T/C [14]: 94%
viability, T/C [15]: 58.1%
viability, T/C [16]: 33.1%
viability, T/C [17]: 18.4%
viability, T/C [18]: 87.6%
viability, T/C [19]: 87.8%
viability, T/C [20]: 86.5%
viability, T/C [21]: 57.9%
viability, T/C [22]: 39%
viability, T/C [23]: 19.8%
viability, T/C [24]: 80.7%
viability, T/C [25]: 99.1%
viability, T/C [26]: 96.4%
viability, T/C [27]: 60.3%
viability, T/C [28]: 40.8%
viability, T/C [29]: 22.2%
viability, T/C [30]: 80.9%
viability, T/C [31]: 104%
viability, T/C [32]: 95%
viability, T/C [33]: 67.8%
viability, T/C [34]: 42.5%
viability, T/C [35]: 25.8%

IC50 (curve of compound): > 10000 nM and 3200 nM
Structure (SMILES): O=C(c1cc(Cc2n[nH]c(=O)c3ccccc23)ccc1F)N1CCN(C(=O)C2CC2)CC1
viability, T/C (compound 0.0316 µM): 90.8% and 96.5%
viability, T/C (compound 0.1 µM): 94.5% and 103%
viability, T/C (compound 0.316 µM): 83.5% and 95.9%
viability, T/C (compound 1 µM): 91.6% and 83%
viability, T/C (compound 3.16 µM): 82.8% and 50.5%
viability, T/C (compound 10 µM): 101% and 21.5%

IC50 (curve of compound): 430 nM and 395 nM
Structure (SMILES): O=C(C=Cc1cccc(S(=O)(=O)Nc2ccccc2)c1)NO
viability, T/C (compound 0.00949 µM): 95.8% and 103%
viability, T/C (compound 0.03 µM): 96.6% and 93%
viability, T/C (compound 0.0949 µM): 111% and 99.2%
viability, T/C (compound 0.3 µM): 72.5% and 65.1%
viability, T/C (compound 0.949 µM): 0.88% and 1.85%
viability, T/C (compound 3 µM): 0.2% and 0.16%

Structure (SMILES): O=C(C=Cc1cccc(S(=O)(=O)Nc2ccccc2)c1)NO + NC1CCC(NC2CC2c2ccccc2)CC1
IC50 [1]: 441 nM
IC50 [2]: 387 nM
IC50 [3]: 371 nM
IC50 [4]: 370 nM
IC50 [5]: 363 nM
viability, T/C [6]: 81.7%
viability, T/C [7]: 86.9%
viability, T/C [8]: 112%
viability, T/C [9]: 69.3%
viability, T/C [10]: 10.8%
viability, T/C [11]: 0.16%
viability, T/C [12]: 92.8%
viability, T/C [13]: 104%
viability, T/C [14]: 112%
viability, T/C [15]: 63.5%
viability, T/C [16]: 5.13%
viability, T/C [17]: 0.17%
viability, T/C [18]: 101%
viability, T/C [19]: 108%
viability, T/C [20]: 100%
viability, T/C [21]: 59%
viability, T/C [22]: 10.2%
viability, T/C [23]: 5.62%
viability, T/C [24]: 93.4%
viability, T/C [25]: 105%
viability, T/C [26]: 97%
viability, T/C [27]: 58.9%
viability, T/C [28]: 9.02%
viability, T/C [29]: 0.15%
viability, T/C [30]: 84.1%
viability, T/C [31]: 93%
viability, T/C [32]: 111%
viability, T/C [33]: 59.1%
viability, T/C [34]: 7.76%
viability, T/C [35]: 0.33%
